Key:
Experiment in all cases: Fixed Ratio Drug Combination Assay, cell proliferation (CellTiter Glo)
Format in all cases: cell-based, human
NCIH630 = conditions: for Ymin/T0: 72 hours; for IC50: Homo sapiens, NCI-H630, 72 hours, read-out: gIC50
Method: (§1) Combination drug tests with Compounds A and B were conducted using a panel of cell lines from human colon cancers (n=25) (Table 1). Cell lines were purchased commercially [from ATCC (Manassas, Va., USA) or DSMZ (Braunschweig, Germany)] and grown in RPMI-1640 supplemented with 2 mM glutamine, 1 mM sodium pyruvate and 10% fetal bovine serum and maintained at 37° C. and 5% CO2 in a humid incubator.
(§2) The dilution design of the Fixed Ratio Drug Combination Assay can be seen in FIG. 1. First, the test compounds were prepared as 10 mM stocks in 100% dimethyl sulfoxide (DMSO). Further dilutions of the compounds were made with DMSO. The first test compound (designated as Compound A) is diluted horizontally in a 96 well microtiter plate in rows B-E using a 3-fold dilution series for 10 dilution points. A second test compound (designated as Compound B) is diluted horizontally in a separate 96 well microtiter plate in rows D-G using a 3-fold dilution series for 10 dilution points. The two compounds are combined using equal volumes from each drug plate into cell culture media. […] Compound A is individually titrated in rows B and C, while only Compound B is dosed in rows F and G of the plate. An additional 1:10 dilution of the drugs is performed in cell culture media prior to addition to the cells. Drug addition to the cells results in a further 1:2 dilution of drugs. The total dilution of the drug plate to the cells is […]. The final dosing concentration range for Compound B was 0.1-1000.0 nM and was 0.5-10000.0 nM for Compound A. The positive control consists of culture media with DMSO at 0.1% and cells and no drug. The negative control consists of culture media with DMSO at 0.1%. solution.
(§3) Assays were performed in 96 well microtiter plates with appropriate seeding densities estimated from previous studies of each cell line. Following dosing, the cell lines are incubated at 37° C., 5% CO2 in humid air for 72 hours. Cell proliferation was measured using the CellTiter Glo (Promega Corporation, Madison, Wis., USA) reagent according to the manufacturer's protocol. The plates are treated with CellTiter Glo solution and are analyzed for RLU (relative light units) using a Molecular Devices SpectraMax M5 (Sunnyvale, Calif., USA) plate reader.
(§4) Results are expressed as a percentage of the number of cells present at the time of compound addition value (T0) and plotted against compound(s) concentration. The percent intensity values were used in model 205 of the IDBS XLfit plug-in for Microsoft Excel to calculate gIC50 values using a 4 parameter logistical fit. Background correction is made by subtraction of values from wells containing no cells. The midpoint of the growth window (the gIC50) falls half way between the number of cells at the time of compound addition and the growth of control cells treated with DMSO at 72 hrs. The number of cells at time zero is divided from the intensity value at the bottom of the response curve (Ymin) to generate a measure for cell death (Ymin/T0). A value below 1 for Ymin/T0 indicates stronger potency with the treatment when compared to higher values. For duplicate assays, all response metrics are averaged for presentation.
(§5) Three independent metrics were used to analyze the combinatorial effects on growth inhibition of Compound B and Compound A. • 1. Excess over Highest Single Agent (EOHSA)—One standard criterion for measuring drug combinatorial effects is analyzing the effects on cell growth inhibition in absolute terms. In this case, the combination of drugs is compared to the more responsive of the two individual treatments (single agent). For each combination experiment, the percent effect relative to the highest single agent for each dose along the curve is generated. This measure of “Excess of Highest Single Agent (EOHSA)” is one of the criteria used for evaluating synergy of drug combinations. […]

LS174T = conditions: 72 hours; for IC50: Homo sapiens, read-out: gIC50
Method: as §1, §2, §3, §4, §5

SW1463 = conditions: 72 hours; for IC50: Homo sapiens, read-out: gIC50
Method: as §1, §2, §3, §4, §5

## CC(C)(C)c1nc(-c2cccc(NS(=O)(=O)c3c(F)cccc3F)c2F)c(-c2ccnc(N)n2)s1 [Compound A, N-{3-[5-(2-amino-4-pyrimidinyl)-2-(1,1-dimethylethyl)-1,3-thiazol-4-yl]-2-fluorophenyl}-2,6-difluorobenzenesulfonamide]
NCIH630
  Ymin/T0: 1.9
  IC50: 5000 nM
LS174T
  Ymin/T0: 7.0
  IC50: > 10000 nM
SW1463
  Ymin/T0: 1.9
  IC50: > 10000 nM

## COc1ncc(-c2ccc3nccc(-c4ccnnc4)c3c2)cc1NS(=O)(=O)c1ccc(F)cc1F [Compound B, 2,4-difluoro-N-{2-(methyloxy)-5-[4-(4-pyridazinyl)-6-quinolinyl]-3-pyridinyl}benzenesulfonamide]
NCIH630
  Ymin/T0: 0.9
  IC50: 18.3 nM
LS174T
  Ymin/T0: 0.8
  IC50: 34.1 nM
SW1463
  Ymin/T0: 0.9
  IC50: 8.2 nM

Reference: patent publication US20120202822A1, “COMBINATION” (priority 2009, published 2012)
